Patent US20040044037A1, “Amidino-urea serotonin receptor ligands and compositions, their pharmaceutical uses, and methods for their snythesis” (priority 2003, published 2004)

Legend:
human 5-HT1a receptors = biological target: T1, human 5-HT1a receptors (Homo sapiens, UniProt P08908); assay: Competition radioligand binding, h5-HT1a; conditions: [3H]5-CT; membranes of CHO K1 cells; read-out: Ki 5-HT1A
T1 construct: expressed in transfected cells; host or cells: CHO K1 cells
T1 sequence (P08908 1-422): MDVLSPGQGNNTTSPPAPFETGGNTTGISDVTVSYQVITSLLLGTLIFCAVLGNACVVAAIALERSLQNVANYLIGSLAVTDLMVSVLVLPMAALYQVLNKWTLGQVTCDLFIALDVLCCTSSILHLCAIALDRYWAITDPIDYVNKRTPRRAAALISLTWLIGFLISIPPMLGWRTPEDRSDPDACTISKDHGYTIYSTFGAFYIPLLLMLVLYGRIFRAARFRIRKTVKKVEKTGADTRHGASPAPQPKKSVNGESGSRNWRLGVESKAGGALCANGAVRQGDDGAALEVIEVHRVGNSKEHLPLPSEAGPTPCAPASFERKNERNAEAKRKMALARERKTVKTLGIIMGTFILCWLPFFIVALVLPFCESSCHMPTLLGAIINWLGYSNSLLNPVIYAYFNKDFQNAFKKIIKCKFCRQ
Procedure: (§1) Cells and Membrane Preparation: HEK 293 cells stably expressing human 5-HT7B (h5-HT7b) receptors were grown in Dulbecco's Modified Eagle's Medium (DMEM; Gibco) without sodium pyruvate and containing 4.5 g/L glucose, L-glutamine/penicillin-streptomycin (Gemini), 10% fetal bovine serum and 250 mg/l of the antibiotic, G418 (Geneticin) as previously described (Jasper, J. R., Kosaka, A., To, Z. P., Chang, D. J. and Eglen, R. M. (1997) Cloning, expression and pharmacology of a truncated splice variant of the human 5-ht7 receptor (h5-ht7b). Br. J. Pharmacol. 122(1):126-132.). Cell pellets were homogenized in approximately 50 mL of homogenization buffer (buffer A) containing: 50 mM Tris (pH 7.4), 2 mM EGTA, 0.32 M sucrose, 10 μM PMSF, 1 μg/mL leupeptin, 5 μg/mL Pepstatin A, and 5 μg/mL aprotinin using an UltraTurax homogenizer (Tekmar Company, Cincinnati, Ohio) at 80% maximum setting three times for 10 sec. Cell pellets were centrifuged at 4° C. at 1,500×g for 10 min in a Beckman GS-6R centrifuge. Pellets were resuspended in buffer A, homogenized and centrifuged as described above. Pooled supernatants were transferred to centrifuge bottles and centrifuged at 4° C. at 20,000×g for 30 min in a Beckman J2-HS centrifuge. Cell pellets were resuspended in buffer A and were centrifuged at 4° C. at 20,000×g for 30 min. Cell pellets were resuspended in buffer A and stored at −70° C. in aliquots of 2.5 mg/mL total membrane protein. Total membrane protein was assessed utilizing a BCA kit (Pierce; Rockford, Ill.). Membranes containing human 5-HT1a or 5HT2a receptors expressed in CHO K1 cells were prepared as described above.
(§2) Radioligand Binding Assays: For 5-HT7 saturation binding experiments, HEK-293 cell membranes expressing h5-HT7 receptors (5-10 μg membrane protein/well) were incubated in duplicate with [^3H]5-CT (approximately 0.2 nM) in binding assay buffer containing: 50 mM HEPES (pH 7.4), 0.5 mM EDTA, 10 mM MgCl2, 10 μM pargyline to inhibit monoamine oxidase activity, and 0.1% sodium ascorbate, in a final volume of 200 μL in 96-well polypropylene plates for 2 hours at 37° C. Nonspecific binding was determined by incubating membranes with 1 μM 5-HT. All radioligand binding assays were stopped by rapid filtration onto 96-well GF/C filter plates (Packard) soaked in 0.1% polyethylenimine. Filters were washed three times with ice-cold phosphate-buffered saline (PBS) wash buffer containing 50 mM NaPO4 (pH 7.4), 0.9% NaCl, 2 mM MgCl2 and 0.02% NaN3. The filters were then counted using liquid scintillation in a Packard Topcount scintillation counter.
(§3) Data Analysis: Radioligand binding experiments were analyzed with Prism™ (Graphpad, San Diego, Calif.), a computer graphics and statistics program. IC50 values and Hill slopes for compounds were generated by nonlinear regression using Prism™. Values for Ki calculated from IC50 values by the Cheng and Prussoff equation (Cheng, Y. and Prusoff, W. H., (1973), “Relationship between the inhibition constant (Ki) and the concentration of inhibitor which causes 50 per cent inhibition (I50) of an enzymatic reaction.” Biochemical Pharmacol. 22:3099-3108).

[1] = biological target: T2, human 5-HT7B (h5-HT7b) receptors (Homo sapiens, UniProt P34969); assay: Competition radioligand binding, h5-HT7b; conditions: [3H]5-CT; membranes of HEK 293 cells; read-out: Ki 5-HT7
T2 construct: expressed in transfected cells
T2 sequence (P34969 1-432 limits assumed): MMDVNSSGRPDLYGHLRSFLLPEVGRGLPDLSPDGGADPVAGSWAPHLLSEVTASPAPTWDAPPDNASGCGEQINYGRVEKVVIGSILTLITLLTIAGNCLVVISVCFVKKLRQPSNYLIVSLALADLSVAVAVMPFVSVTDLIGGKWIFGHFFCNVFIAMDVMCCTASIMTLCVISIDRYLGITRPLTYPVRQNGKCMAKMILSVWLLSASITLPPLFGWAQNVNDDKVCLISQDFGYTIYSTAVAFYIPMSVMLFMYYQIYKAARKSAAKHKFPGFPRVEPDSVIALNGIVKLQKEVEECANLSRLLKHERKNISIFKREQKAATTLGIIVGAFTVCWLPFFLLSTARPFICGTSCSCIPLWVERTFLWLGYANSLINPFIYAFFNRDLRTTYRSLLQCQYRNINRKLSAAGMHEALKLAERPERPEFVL
Outline: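 Membranes from HEK 293 cells stably expressing human 5-HT7b incubated with ~0.2 nM [3H]5-CT and varying compound 2 h at 37 °C in HEPES buffer pH 7.4 with pargyline. Nonspecific binding with 1 μM 5-HT; filtration, scintillation counting; IC50 by nonlinear regression converted to Ki via Cheng–Prusoff.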

[2] = biological target: T3, human D2S dopamine (hD2S-DA) receptors (Homo sapiens, UniProt P14416); assay: Competition radioligand binding, hD2S dopamine; conditions: [3H]Spiperone; membranes of A9 L cells; read-out: Ki D2
T3 construct: purchased Receptor Biology, Inc. (Beltsville, Md.); host or cells: A9 L cells
T3 sequence (P14416 1-414 isoform P14416-2): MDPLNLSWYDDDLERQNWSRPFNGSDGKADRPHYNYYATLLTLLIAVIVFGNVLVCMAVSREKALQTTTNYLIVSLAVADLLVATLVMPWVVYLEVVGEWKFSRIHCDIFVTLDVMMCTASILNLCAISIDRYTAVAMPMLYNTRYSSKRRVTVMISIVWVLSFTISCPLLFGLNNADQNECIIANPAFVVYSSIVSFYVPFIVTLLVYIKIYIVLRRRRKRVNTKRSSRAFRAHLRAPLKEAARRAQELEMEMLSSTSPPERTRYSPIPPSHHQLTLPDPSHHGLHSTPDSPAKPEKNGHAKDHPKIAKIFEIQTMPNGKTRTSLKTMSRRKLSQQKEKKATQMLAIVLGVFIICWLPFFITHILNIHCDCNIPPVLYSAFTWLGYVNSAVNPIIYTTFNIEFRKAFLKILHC

human 5HT2a receptors = biological target: T4, human 5HT2a receptors (Homo sapiens, UniProt P28223); assay: Competition radioligand binding, 5-HT2A; conditions: [3H]Ketanserin; membranes of CHO K1 cells; read-out: Ki 5-HT2A
T4 construct: expressed in transfected cells; host or cells: CHO K1 cells
T4 sequence (P28223 whole entry): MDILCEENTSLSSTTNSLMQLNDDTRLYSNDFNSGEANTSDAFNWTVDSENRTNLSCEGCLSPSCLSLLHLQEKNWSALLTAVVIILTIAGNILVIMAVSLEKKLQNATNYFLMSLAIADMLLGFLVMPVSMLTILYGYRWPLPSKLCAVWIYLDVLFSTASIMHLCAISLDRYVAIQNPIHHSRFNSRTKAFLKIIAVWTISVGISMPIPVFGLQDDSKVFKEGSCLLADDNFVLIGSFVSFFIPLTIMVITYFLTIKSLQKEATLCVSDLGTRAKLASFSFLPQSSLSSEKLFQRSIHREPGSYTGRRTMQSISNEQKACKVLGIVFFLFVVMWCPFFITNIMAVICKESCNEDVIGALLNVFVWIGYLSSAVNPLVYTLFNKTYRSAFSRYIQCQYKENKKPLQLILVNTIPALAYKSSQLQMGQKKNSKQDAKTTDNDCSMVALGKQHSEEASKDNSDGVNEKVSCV
Procedure: as §1, §2, §3

[3] = biological target: T5, human 5-HT6 (h5-HT6) receptors (Homo sapiens, UniProt P50406); assay: Competition radioligand binding, h5-HT6; conditions: [3H]LSD; membranes of HEK-293 cells; read-out: Ki 5-HT6
T5 construct: purchased Receptor Biology, Inc. (Beltsville, Md.); host or cells: HEK-293 cells
T5 sequence (P50406 whole entry): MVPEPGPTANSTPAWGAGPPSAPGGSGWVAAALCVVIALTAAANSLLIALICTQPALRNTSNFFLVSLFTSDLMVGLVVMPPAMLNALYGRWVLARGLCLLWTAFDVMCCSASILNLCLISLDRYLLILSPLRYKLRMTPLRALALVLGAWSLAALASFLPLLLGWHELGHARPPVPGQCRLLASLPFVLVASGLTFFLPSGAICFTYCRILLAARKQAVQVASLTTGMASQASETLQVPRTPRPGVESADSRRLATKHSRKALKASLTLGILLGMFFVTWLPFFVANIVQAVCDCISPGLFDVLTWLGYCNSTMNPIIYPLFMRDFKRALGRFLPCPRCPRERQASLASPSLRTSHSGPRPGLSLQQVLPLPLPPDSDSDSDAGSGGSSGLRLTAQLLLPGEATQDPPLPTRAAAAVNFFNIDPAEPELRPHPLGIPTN

## N=C(NCc1cccc2ccccc12)NC(=O)NC[C@@H]1CCCC[C@H]1O [Example 46, 1-({[{[({[(1S,2R)-2-Hydroxycyclohexyl]methyl}amino)carbonyl]amino}(imino)methyl]amino}methyl)naphthalene]
Human 5-HT1a receptors
  Ki: 49 nM
[1]
  Ki: 9.8 nM
[2]
  Ki: 410 nM
Human 5HT2a receptors
  Ki: 0.6 nM
[3]
  Ki: 500 nM

## N=C(NCc1cccc2ccccc12)NC(=O)NCC1(O)CCCCC1 [Example 50, 1-({[[({[(1-Hydroxycyclohexyl)methyl]amino}carbonyl)amino](imino)methyl]amino}methyl)naphthalene]
Human 5-HT1a receptors
  Ki: 47 nM
[1]
  Ki: 26 nM
[2]
  Ki: 1070 nM
Human 5HT2a receptors
  Ki: 0.25 nM
[3]
  Ki: 620 nM

## CCOC(=O)N1CCN(C(=O)NC(=N)NCc2cccc3ccccc23)CC1 [Example 51, Ethyl 4-[({imino[(1-naphthylmethyl)amino]methyl}amino)carbonyl]-1-piperazine carboxylate]
Human 5-HT1a receptors
  Ki: > 4000 nM
[1]
  Ki: 15 nM
[2]
  Ki: > 2500 nM
Human 5HT2a receptors
  Ki: 18 nM
[3]
  Ki: > 10000 nM

## COc1cccc(CCNC(=O)NC(=N)NCc2cccc3ccccc23)c1OC [Example 53, 1-({[({[(2,3-Dimethoxyphenethyl)amino]carbonyl}amino)(imino)methyl]amino}methyl)naphthalene]
Human 5-HT1a receptors
  Ki: 170 nM
[1]
  Ki: 62 nM
[2]
  Ki: 290 nM
Human 5HT2a receptors
  Ki: 0.8 nM
[3]
  Ki: 1870 nM

## CNC(=O)NC(=N)NCc1cccc2ccccc12 [Example 54, 1-{[(1-Imino{[(methylamino)carbonyl]amino}methyl)amino]methyl}naphthalene]
Human 5-HT1a receptors
  Ki: 2450 nM
[1]
  Ki: 13 nM
[2]
  Ki: > 2500 nM
Human 5HT2a receptors
  Ki: 9.6 nM
[3]
  Ki: 2450 nM

## C[C@@H](O)CNC(=O)NC(=N)NCc1cccc2ccccc12 [Example 55, 1-({[[({[(2R)-2-Hydroxypropyl]amino}carbonyl)amino](imino)methyl]amino}methyl)naphthalene]
Human 5-HT1a receptors
  Ki: 1720 nM
[1]
  Ki: 10 nM
[2]
  Ki: > 2500 nM
Human 5HT2a receptors
  Ki: 1.5 nM
[3]
  Ki: 2320 nM

## CN(C)C(=O)NC(=N)NCc1cccc2ccccc12 [Example 56, 1-({[{[(Dimethylamino)carbonyl]amino}(imino)methyl]amino}methyl)naphthalene]
Human 5-HT1a receptors
  Ki: 700 nM
[1]
  Ki: 94 nM
[2]
  Ki: > 2500 nM
Human 5HT2a receptors
  Ki: 17 nM
[3]
  Ki: > 10000 nM

## COc1cccc(CN2CCC(CNC(=O)NC(=N)NCc3cccc4ccccc34)CC2)c1 [Example 58, 4-({[({Imino[(1-naphthylmethyl)amino]methyl}amino)carbonyl]amino}methyl)-1-(3-methoxybenzyl)piperidine]
Human 5-HT1a receptors
  Ki: 420 nM
[1]
  Ki: 23 nM
[2]
  Ki: 1570 nM
Human 5HT2a receptors
  Ki: 8.1 nM
[3]
  Ki: 1370 nM

## N=C(NCc1cccc2ccccc12)NC(=O)NCC1CCN(Cc2ccc([N+](=O)[O-])cc2)CC1 [Example 60, 4-({[({Imino[(1-naphthylmethyl)amino]methyl}amino)carbonyl]amino}methyl)-1-(4-nitrobenzyl)piperidine]
Human 5-HT1a receptors
  Ki: 68 nM
[1]
  Ki: 51 nM
[2]
  Ki: 1870 nM
Human 5HT2a receptors
  Ki: 16 nM
[3]
  Ki: 3470 nM

## COc1ccc(C(C)=O)cc1CN1CCC(CNC(=O)NC(=N)NCc2cccc3ccccc23)CC1 [Example 63, 1-(5-Acetyl-2-methoxybenzyl)4({[({imino[(1-naphthylmethyl)amino]methyl}amino)carbonyl]amino}methyl)piperidine]
Human 5-HT1a receptors
  Ki: 340 nM
[1]
  Ki: 39 nM
[2]
  Ki: 1780 nM
Human 5HT2a receptors
  Ki: 1.8 nM
[3]
  Ki: 3030 nM

## Cc1ccccc1CN1CCC(CNC(=O)NC(=N)NCc2cccc3ccccc23)CC1 [Example 65, 4-({[({Imino[(1-naphthylmethyl)amino]methyl}amino)carbonyl]amino}methyl)-1-(2-methylbenzyl)piperidine]
Human 5-HT1a receptors
  Ki: 690 nM
[1]
  Ki: 29 nM
[2]
  Ki: 2490 nM
Human 5HT2a receptors
  Ki: 9.5 nM
[3]
  Ki: 4180 nM

## N=C(NCc1cccc2ccccc12)NC(=O)NCC1CCN(Cc2ccc3c(c2)OCO3)CC1 [Example 66, 1-(1,3-Benzodioxol-5-ylmethyl)-4-({[({imino[(1-naphthylmethyl)amino]methyl}amino)carbonyl]amino}methyl)piperidine]
Human 5-HT1a receptors
  Ki: 430 nM
[1]
  Ki: 31 nM
[2]
  Ki: 1580 nM
Human 5HT2a receptors
  Ki: 4.2 nM
[3]
  Ki: 3700 nM

## N=C(NCc1cccc2ccccc12)NC(=O)NCC1CCN(Cc2ccc(F)cc2F)CC1 [Example 67]
Human 5-HT1a receptors
  Ki: 500 nM
[1]
  Ki: 32 nM
[2]
  Ki: > 2500 nM
Human 5HT2a receptors
  Ki: 6.4 nM
[3]
  Ki: 2860 nM

## COc1ccc(CN2CCC(CNC(=O)NC(=N)NCc3cccc4ccccc34)CC2)cc1C [Example 68, 4-({[({Imino[(1-naphthylmethyl)amino]methyl}amino)carbonyl]amino}methyl)-1-(4-methoxy-3-methylbenzyl)piperidine]
Human 5-HT1a receptors
  Ki: 1680 nM
[1]
  Ki: 18 nM
[2]
  Ki: 1540 nM
Human 5HT2a receptors
  Ki: 10 nM
[3]
  Ki: 910 nM

## CC(=O)Nc1ccc(CN2CCC(CNC(=O)NC(=N)NCc3cccc4ccccc34)CC2)cc1 [Example 70, N-(4-{[4-({[({Imino[(1-naphthylmethyl)amino]methyl}amino)carbonyl]amino}methyl)-1-piperidinyl]methyl}phenyl)acetamide]
Human 5-HT1a receptors
  Ki: 110 nM
[1]
  Ki: 16 nM
[2]
  Ki: 2450 nM
Human 5HT2a receptors
  Ki: 0.55 nM
[3]
  Ki: 2430 nM

## COc1ccc(CN2CCC(CNC(=O)NC(=N)NCc3cccc4ccccc34)CC2)cc1 [Example 71, 4-({[({Imino[(1-naphthylmethyl)amino]methyl}amino)carbonyl]amino}methyl)-1-(4-methoxybenzyl)piperidine]
Human 5-HT1a receptors
  Ki: 600 nM
[1]
  Ki: 19 nM
[2]
  Ki: 1470 nM
Human 5HT2a receptors
  Ki: 1.3 nM
[3]
  Ki: 1370 nM

## Cc1cccc(CN2CCC(CNC(=O)NC(=N)NCc3cccc4ccccc34)CC2)c1 [Example 72, 4-({[({Imino[(1-naphthylmethyl)amino]methyl}amino)carbonyl]amino}methyl)-1-(3-methylbenzyl)piperidine]
Human 5-HT1a receptors
  Ki: 420 nM
[1]
  Ki: 15 nM
[2]
  Ki: 880 nM
Human 5HT2a receptors
  Ki: 5.3 nM
[3]
  Ki: 880 nM
